The term EC50 denotes the concentration at which the effect is half-maximal.

The subject of assay [1] is CT26 colon carcinoma. Kind of assay: CT26 mouse colon carcinoma in vivo efficacy study, intratumoral dosing. As to conditions: for Cure Rate (TV < 10 mm^3) / Treatment Failure (TV > 2000 mm^3): 100 μg intratumorally, 3 times, three days apart, BALB/c mice. On the procedure: (§1) The in vivo antitumoral activity of compounds of Formula (I) were studied in the mouse CT26 colon carcinoma model. 10 female 9-week old BALB/c mice/group were implanted subcutaneously with 3×10^5 cells on the flank. Caliper measurements to assess the tumor volume (TV) and body weight measurements were performed daily for the first 8 days and biweekly thereafter until the end of the study. Dosing started when the tumor volumes reached a size of 100 mm^3. The compounds of Formula (I) were tested in two separate studies with their respective vehicle control. Compounds of Formula (I) were dosed 3 times, three days apart, intratumorally at either 25 or 100 μg. The human endpoint is predefined as a TV of 2000 mm^3.

The target of assay [2] is T1, 293T-Dual hSTING-R232 cells (Homo sapiens, UniProt Q86WV6, H232R).
T1 construct: host or cells: 293T-Dual hSTING-R232 cells (HEK 293T)
The experiment in a line: 293T R232 cell reporter assay (HEK 293T reporter assay). The note with it: digitonin 10 μg/mL, 30 min exposure, 20 h incubation. It is filed as cell-based. On the procedure: 293T-Dual hSTING-R232 cells (Invivogen) were plated in 96 well plates at a density of 5×10^4 cells per well in DMEM supplemented with 10% FBS, 1% Pen-Strep, 1% non-essential amino acids, 1% glutamine, and 1% HEPES. Assay setup took place after allowing cells to adhere for 48 h. Compounds dissolved in water were serially diluted in dosing buffer containing 10 μg/mL digitonin. Media was aspirated from the cells, and 50 μL buffer with compound was added in triplicate. After 30 min at 37° C., buffer was aspirated and replaced with 100 μL media. Cells were incubated for 20 h at 37° C., 5% CO2. IFN-beta expression and activation of the interferon regulatory factor (IRF) were measured based on luciferase and alkaline phosphatase reporter activity, respectively. Cell viability was determined in parallel.
A general note: A reporter such as luciferase makes a cellular process visible.

Assay [3] concerns CT26 colon carcinoma. The experiment in a line: CT26 mouse colon carcinoma combination study with anti-CTLA-4 (clone 9H10). Type of assay: in vivo. On the procedure: as §1
The in vivo antitumoral activity of compounds of Formula (I) in combination with the immune checkpoint inhibitor anti-CTLA-4 (clone 9H10) was studied in the mouse CT26 colon carcinoma model. The study was performed as described in the first paragraph of Example C.

The test system of assay [4] is CT26 colon carcinoma. Kind of assay: CT26 mouse colon carcinoma study, intratumoral or subcutaneous administration. Type of assay: in vivo. On the procedure:
as §1
The in vivo antitumoral activity of compounds of Formula (I) after intratumoral of subcutaneous administration was studied in the mouse CT26 colon carcinoma model. The study was performed as in the first paragraph of Example C. Compounds of Formula (I) were dosed 2 or 3 times, three days apart (q3d) or 7 days apart (qw), intratumorally at either […] or subcutaneously at either 1 or 4 mg/kg.

The mark [5] stands for this setting: alkaline phosphatase reporter, read-out: EC50 [μM] IRF reporter.
[6] abbreviates: luciferase reporter, read-out: EC50 [μM] IRN-β reporter.
Where [7] appears, read: three times subcutaneously at 4 mg/kg.
The mark [8] stands for this setting: EC50 [μM] IRF reporter, alkaline phosphatase reporter.
The mark [9] stands for this setting: EC50 [μM] IRN-β reporter, luciferase reporter.

Read-outs that look alike come from different tables or passages of the source.

T1 sequence (Q86WV6 whole entry H232R): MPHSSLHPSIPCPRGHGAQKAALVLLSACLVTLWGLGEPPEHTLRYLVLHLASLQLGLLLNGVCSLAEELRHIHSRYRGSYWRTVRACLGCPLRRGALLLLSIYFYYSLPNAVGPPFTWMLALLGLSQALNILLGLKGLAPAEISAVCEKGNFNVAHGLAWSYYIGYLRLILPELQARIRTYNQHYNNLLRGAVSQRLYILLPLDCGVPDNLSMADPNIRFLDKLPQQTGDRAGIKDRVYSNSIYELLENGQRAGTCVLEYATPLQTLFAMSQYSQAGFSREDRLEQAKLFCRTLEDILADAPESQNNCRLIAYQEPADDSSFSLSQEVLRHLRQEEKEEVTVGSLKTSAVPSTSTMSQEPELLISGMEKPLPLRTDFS

For the compound `Nc1nc2c(ncn2[C@@H]2O[C@@H]3CO[P@](=O)([S][Na])O[C@H]4[C@@H](O)[C@H](n5cnc6c(N)ncnc65)[C@H]5C[C@]54COP(=O)([O-])O[C@@H]2[C@@H]3F)c(=O)[nH]1.[Na+]` [Compound 1-22b], in assay [1], the “Cure Rate (TV < 10 mm^3)” value is 56% and the “Treatment Failure (TV > 2000 mm^3)” value was found to be 44%. Further, in assay [2] (setting [5]), the EC50 was less than 0.25 µM. Besides, the EC50 in assay [2] (setting [6]) was less than 0.25 µM.
Take `CO[C@H]1[C@H]2OP(=O)(O)OC[C@]34C[C@@H]3[C@@H](n3cnc5c(N)ncnc53)[C@H](O)[C@@H]4O[P@@](=O)([S][Na])OC[C@H]1O[C@H]2n1cnc2c(=O)[nH]c(N)nc21` [Compound 10-b]: in assay [3] (25 μg, IT/3 × q3d), the “Complete Tumor Suppression (TV < 10 mm^3)” value was found to be 0 and the “Treatment Failure (TV > 2000 mm^3)” value worked out at 100. In assay [3] (three IT doses of 25 g), the “delay of tumor growth” value is recorded as “approx. 8 days”. Further, in assay [4] (dosed intratumorally at 100 μg), the “animals with complete tumor suppression” value is 4/10. In assay [4] (setting [7]), the “animals with complete tumor suppression” value is given as 1/10 and the “delay of tumor growth” value is given as “further delay in tumor growth”. Besides, in assay [4] (two subcutaneous administrations at 4 mg/kg), the “delay of tumor growth compared to the vehicle group” value was “approx. 8 days”.
On to `Nc1ncnc2c1ncn2[C@H]1[C@H](O)[C@@H]2O[P@@](=O)([S][Na])OC[C@H]3O[C@@H](n4cnc5c(=O)[nH]cnc54)[C@H](F)[C@@H]3OP(=O)(O)OC[C@@]23C[C@H]13` [Compound 1-20b], for which, in assay [1], the “Cure Rate (TV < 10 mm^3)” value was 50% and the “Treatment Failure (TV > 2000 mm^3)” value is 50%. Besides, the EC50 in assay [2] (setting [8]) is less than 0.25 µM. Further, the EC50 in assay [2] (setting [9]) was less than 0.25 µM.
As to `Nc1nc2c(ncn2C2OC34COC2C3OP(=O)(O)OCC23CC2C(n2cnc5c(N)ncnc52)C(O)C3OP(=O)(S)OC4)c(=O)[nH]1` (centres unmarked) [Compound 1-21b], the “Cure Rate (TV < 10 mm^3)” value in assay [1] is on record as 50%. Also, the “Treatment Failure (TV > 2000 mm^3)” value in assay [1] was found to be 50%. Further, the EC50 in assay [2] (setting [5]) and in assay [2] (setting [6]) was less than 0.25 µM in each case.
On to `CO[C@H]1[C@H]2OP(=O)([O-])OC[C@@]34C[C@@H]3[C@@H](n3cnc5c(N)ncnc53)[C@H](O)[C@@H]4OP(=O)([O-])OC[C@H]1O[C@H]2n1cnc2c(=O)[nH]c(N)nc21.[Na+].[Na+]` [Compound 1-1], for which, in assay [1], the “Cure Rate (TV < 10 mm^3)” value worked out at 40%. The “Treatment Failure (TV > 2000 mm^3)” value in assay [1] came out at 40%. In addition, the “tumor-free animals at the end of the study” value in assay [1] (three intratumoral doses of 100 g, 10 mice/group) is given as 4 out of 10. Further, the half-maximal effective concentration (EC50) in assay [2] (setting [5]) and in assay [2] (setting [6]) was less than 0.25 µM each time.
As to `Nc1ncnc2c1ncn2[C@H]1[C@H](O)[C@@H]2O[P@](=O)([S][Na])OC[C@H]3O[C@@H](n4cnc5c(N)ncnc54)[C@H](OP(=O)(O)OC[C@@]24C[C@H]14)[C@@H]3O` [Compound 1-15a], the EC50 in assay [2] (setting [8]) and in assay [2] (setting [9]) was more than 100 µM in each case.
In the case of `Nc1ncnc2c1ncn2C1OC2COP(=O)(S)OC3C(O)C(n4cnc5c(N)ncnc54)C4CC43COP(=O)(S)OC1C2O` (centres unmarked) [Compound 1-14c], the EC50 in assay [2] (setting [5]) and in assay [2] (setting [6]) was 0.25 to 100 µM throughout.
As for `Nc1ncnc2c1ncn2[C@H]1[C@H](O)[C@@H]2O[P@@](=O)([S][Na])OC[C@H]3O[C@@H](n4cnc5c(N)ncnc54)[C@H](OP(=O)(O)OC[C@@]24C[C@H]14)[C@@H]3O` [Compound 1-15b], the EC50 in assay [2] (setting [8]) and in assay [2] (setting [9]) was 0.25 to 100 µM in each case.
`CO[C@H]1[C@H]2OP(=O)(O)OC[C@H]3O[C@@H](n4cnc5c(N)nnnc54)[C@H](O)[C@@H]3OP(=O)(O)OC[C@H]1O[C@H]2n1cnc2c(=O)[nH]c(N)nc21` [Compound 1-11]: the EC50 in assay [2] (setting [5]) and in assay [2] (setting [6]) was more than 100 µM each time.

The values are drawn from patent US11787833B2, “Modified cyclic dinucleoside compounds as sting modulators” (ALIGOS THERAPEUTICS, INC., priority 2019, dated 2023).
